Results taken from article PMC6216040, “Repurposing of an old drug: In vitro and in vivo efficacies of buparvaquone against Echinococcus multilocularis” (International Journal for Parasitology: Drugs and Drug …, 2018).

Tested on: E. multilocularis metacestodes
Assay: PGI-assay: drug-induced damage on in vitro cultured metacestodes (Pathogen Box screening cascade and EC50)
Type: cell-based, Echinococcus multilocularis
Settings: for PGI release, % of the Tx-100 control, 5d / PGI release, % of the Tx-100 control, 12d: 10 µM, singlets; for PGI release, % of the Tx-100 control, 5d / PGI release, % of Tx-100 control, average, 5d: 5 days of incubation; for PGI release, % of the Tx-100 control, 12d / PGI release, % of Tx-100 control, average, 12d: 12 days of incubation; for PGI release, % of Tx-100 control, average, 5d / PGI release, % of Tx-100 control, average, 12d: confirmatory screening at 10 µM in triplicates, values as % of Tx-100 control

SMILES | PGI release, % of the Tx-100 control, 5d [%] | PGI release, % of the Tx-100 control, 12d [%] | PGI release, % of Tx-100 control, average, 5d [%] | PGI release, % of Tx-100 control, average, 12d [%]
NC(CC(=O)c1ccc(Cl)cc1Cl)C(Cl)(Cl)Cl (stereo not drawn) [MMV676468] | -0.27 | -0.82 | – | –
CCOc1ccc(OCC(=O)Nc2cc(C)cc(C)c2)cc1 [MMV676470] | -0.69 | -0.73 | – | –
COc1cccc(OC)c1C(=O)Nc1ccc(Cl)c(-c2nc3ccccc3s2)c1 [MMV676472] | 5.75 | 51.73 | 0.98 | 2.19
COc1ccccc1OCCCCn1c(C2CC2)nc2ccccc21 [MMV676474] | 1.01 | 0.22 | – | –
Cc1cc(C)cc(COc2ccc3c(C)c(CCC(=O)O)c(=O)oc3c2C)c1 [MMV676476] | 0.11 | 10.97 | – | –
CCc1c(C)nc(-n2nc(C)cc2NC(=O)c2ccccc2SC)[nH]c1=O [MMV676477] | -3.90 | 30.66 | -0.18 | 2.18
O=C(C1CCN(c2nnc(-n3cccc3)s2)CC1)N1CCC(Cc2ccccc2)CC1 [MMV676478] | -4.04 | 0.80 | – | –
COC(=O)c1c(NC(=O)c2cc3ccccc3oc2=O)sc2c1CCN(Cc1ccccc1)C2 [MMV676480] | -0.80 | 1.41 | – | –
O=C(Nc1n[nH]c(=S)s1)c1cc(Br)ccc1Cl [MMV676492] | 5.74 | 1.03 | – | –
O=C(Nc1nnc(-c2ccc(Cl)s2)o1)c1ccc(Cl)s1 [MMV676501] | 1.15 | 0.52 | – | –
Cc1ccc2oc(-c3cc(NC(=O)Cc4ccccc4)ccc3Cl)nc2c1 [MMV676509] | -0.17 | 0.19 | – | –
O=C(Nc1nc(-c2ccccn2)cs1)c1cncn1-c1ccccc1 [MMV676512] | 0.19 | 0.30 | – | –
O=C(c1cc2ccccc2o1)N1CCN(Cc2ccc3c(c2)OCO3)CC1 [MMV676520] | -0.72 | -0.39 | – | –
Nc1cccnc1Nc1ccc(Cl)cc1 [MMV676524] | 0.13 | 0.29 | – | –
COc1ccc(-c2cc(NC(=O)c3ccc(F)cc3Cl)ccc2OC)cc1 [MMV676526] | 1.97 | -2.37 | – | –
Cc1cccc(NC(=O)c2cc(S(=O)(=O)N(C)c3ccc(F)cc3)ccc2Cl)n1 [MMV676528] | -0.45 | 0.71 | – | –
COCC(C)NC(=O)CSc1ncnc2sc(-c3ccccc3)cc12 (stereo not drawn) [MMV676536] | 3.74 | 50.91 | 0.53 | 0.42
O=C(NCCc1c[nH]c2ccccc12)c1cc2ccccc2oc1=O [MMV676539] | 0.63 | 17.31 | – | –
COc1ccc(Nc2ccccc2NC(=O)c2ccc(=O)[nH]c2)cc1 [MMV676554] | 0.17 | 3.85 | – | –
Cc1nnc(NCc2cccc(Cl)c2)c2ccccc12 [MMV676555] | -3.14 | 1.45 | – | –
CC1=NN(c2nc3ccccc3s2)C(=O)C1Cc1cccc2ccccc12 (stereo not drawn) [MMV676558] | 13.65 | 78.65 | -0.26 | 0.35
COc1ccc(-c2nc(-c3cccc(NC(=O)Cc4ccc(F)cc4)c3)no2)cc1OC [MMV676571] | -1.41 | 1.58 | – | –
O=C(NC1=NCCS1)c1sc2cc(F)ccc2c1Cl [MMV676584] | -1.36 | 1.53 | – | –
Nc1c2c(nc3sc4c(c13)CCCC4)CCCC2 [MMV676588] | -0.72 | 10.95 | – | –
O=C(CCC1CCCCC1)Nc1cccc(-c2nnc(-c3ccco3)o2)c1 [MMV676589] | -1.81 | 2.20 | – | –
CCCn1nnc(NC(=O)COc2ccc(C3CCCCC3)cc2)n1 [MMV676597] | 0.61 | 0.33 | – | –
